According to US20260207578A1, “COMPOUND BASED ON SULFUR/OXYGEN SUBSTITUTED GLUTARIMIDE-BASED ISOINDOLINONE SKELETON AND USE THEREOF” (Gluetacs Therapeutics (Shanghai) Co., LTD., priority 2022, published 2026):
pIC50: −log10 of the molar value.

Legend:
[1] = molecular target: T1, human Cereblon WT GST-tagged protein (Homo sapiens, UniProt Q96SW2); assay: CRBN-binding affinity, HTRF (CEREBLON BINDING kit); details: displacement of Thalidomide-Re reagent, 3 hours at room temperature
T1 construct: purchased CISBIO 64BDCRBNPEH
T1 sequence (Q96SW2 whole entry): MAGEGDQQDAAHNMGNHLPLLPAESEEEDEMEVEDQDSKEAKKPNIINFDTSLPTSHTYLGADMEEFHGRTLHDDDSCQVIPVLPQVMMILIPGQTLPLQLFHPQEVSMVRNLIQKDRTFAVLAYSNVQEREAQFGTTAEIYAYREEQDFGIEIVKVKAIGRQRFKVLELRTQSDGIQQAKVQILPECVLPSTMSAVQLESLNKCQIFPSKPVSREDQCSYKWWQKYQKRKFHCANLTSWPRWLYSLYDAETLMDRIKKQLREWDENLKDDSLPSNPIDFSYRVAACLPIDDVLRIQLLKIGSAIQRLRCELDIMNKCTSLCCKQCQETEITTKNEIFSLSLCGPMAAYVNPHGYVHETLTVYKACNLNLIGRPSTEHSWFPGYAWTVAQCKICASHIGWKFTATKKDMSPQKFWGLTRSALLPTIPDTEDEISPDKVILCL
Experimental: The CEREBLON BINDING kits (specification: 10,000 tests; product number: Catalog #64BDCRBNPEH; CISBIO company) was used to determine the CRBN binding ability of the compounds to be tested through a HTRF method (homogeneous time-resolved fluorescence). The specific methods are as follows: • 1. […] Then, 2.5 μL of human Cereblon WT GST-tagged protein solution was added to each well. Finally, 5 μL of the thoroughly mixed Thalidomide-Re reagent and GST Eu antibody working solution were added to each of the aforementioned wells. […] The blank control wells were sequentially added with 2.5 μL of diluent #9 (1×) solution, 2.5 μL of PROTAC binding buffer, and 5 μL of thoroughly mixed Thalidomide-Re reagent and GST Eu antibody working solution. • 4.
OD 620 nmcompound is the absorbance value of each well of the compounds to be tested of the present disclosure at an emission wavelength of 620 nm. […] OD 620 nmcontrol is the absorbance value of the blank control well at an emission wavelength of 620 nm. […] OD 620 nmStd0 is the absorbance value of the solvent control well at an emission wavelength of 620 nm.

Wee1 = molecular target: T2, Wee1 (Homo sapiens, UniProt P30291+Q96SW2); assay: Western-blot assay, substrate protein in hPBMCs; type: cell-based; details: hPBMC cells, 24 hours, tested at 50 nM and 500 nM, table does not say which
T2 construct: endogenous in cells; host or cells: human PBMCs (Milecell Biotechnologies)
T2 sequence (P30291 whole entry): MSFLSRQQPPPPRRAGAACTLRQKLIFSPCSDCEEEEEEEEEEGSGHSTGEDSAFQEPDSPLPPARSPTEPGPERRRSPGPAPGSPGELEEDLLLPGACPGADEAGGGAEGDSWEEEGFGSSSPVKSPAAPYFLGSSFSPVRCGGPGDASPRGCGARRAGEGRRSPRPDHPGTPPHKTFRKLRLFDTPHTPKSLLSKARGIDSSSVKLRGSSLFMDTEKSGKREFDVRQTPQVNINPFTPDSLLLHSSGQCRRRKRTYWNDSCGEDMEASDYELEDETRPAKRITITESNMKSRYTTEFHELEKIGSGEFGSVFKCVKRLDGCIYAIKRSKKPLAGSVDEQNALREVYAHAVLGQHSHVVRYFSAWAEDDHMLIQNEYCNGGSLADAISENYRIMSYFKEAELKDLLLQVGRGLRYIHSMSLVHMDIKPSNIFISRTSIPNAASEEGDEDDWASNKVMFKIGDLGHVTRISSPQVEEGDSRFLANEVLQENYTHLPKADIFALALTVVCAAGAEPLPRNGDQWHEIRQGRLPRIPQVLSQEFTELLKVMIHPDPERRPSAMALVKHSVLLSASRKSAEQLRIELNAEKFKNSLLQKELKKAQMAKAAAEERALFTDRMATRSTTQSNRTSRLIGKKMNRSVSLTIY
T2 sequence (Q96SW2 whole entry): as the sequence (Q96SW2 whole entry) above
T2 sequence (Q16531 whole entry partner): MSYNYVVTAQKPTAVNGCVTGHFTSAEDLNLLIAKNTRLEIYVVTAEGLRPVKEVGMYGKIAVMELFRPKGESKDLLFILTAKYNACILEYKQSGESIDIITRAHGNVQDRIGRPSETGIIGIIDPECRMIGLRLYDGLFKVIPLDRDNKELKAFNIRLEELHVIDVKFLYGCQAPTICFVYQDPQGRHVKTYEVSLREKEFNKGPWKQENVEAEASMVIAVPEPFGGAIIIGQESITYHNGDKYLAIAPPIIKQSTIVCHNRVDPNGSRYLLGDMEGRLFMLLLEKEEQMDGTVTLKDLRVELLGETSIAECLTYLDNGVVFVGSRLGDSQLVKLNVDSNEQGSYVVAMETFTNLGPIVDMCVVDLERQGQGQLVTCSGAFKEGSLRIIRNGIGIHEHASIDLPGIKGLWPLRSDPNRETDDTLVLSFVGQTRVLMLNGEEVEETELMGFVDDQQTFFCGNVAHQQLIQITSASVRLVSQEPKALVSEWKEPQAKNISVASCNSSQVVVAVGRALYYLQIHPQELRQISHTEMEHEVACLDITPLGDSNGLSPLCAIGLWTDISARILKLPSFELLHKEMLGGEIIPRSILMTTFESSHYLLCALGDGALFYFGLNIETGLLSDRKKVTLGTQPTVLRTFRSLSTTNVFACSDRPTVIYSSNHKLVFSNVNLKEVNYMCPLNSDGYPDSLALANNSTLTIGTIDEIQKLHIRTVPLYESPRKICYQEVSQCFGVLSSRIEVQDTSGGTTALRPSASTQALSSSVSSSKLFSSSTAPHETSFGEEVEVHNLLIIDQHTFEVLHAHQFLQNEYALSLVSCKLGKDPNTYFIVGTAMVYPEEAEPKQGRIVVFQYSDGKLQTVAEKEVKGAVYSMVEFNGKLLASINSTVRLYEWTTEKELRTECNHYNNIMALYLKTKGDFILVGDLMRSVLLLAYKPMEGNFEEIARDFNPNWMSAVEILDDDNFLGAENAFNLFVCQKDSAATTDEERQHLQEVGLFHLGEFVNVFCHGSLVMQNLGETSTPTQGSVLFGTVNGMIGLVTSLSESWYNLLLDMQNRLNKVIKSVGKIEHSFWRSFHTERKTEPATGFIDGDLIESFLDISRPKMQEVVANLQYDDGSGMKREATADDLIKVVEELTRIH
Experimental: (§1) The effect of the compounds of the present disclosure on the expression of target proteins in cells was detected using conventional Western blot analysis.
(§2) Human peripheral blood mononuclear cells (hPBMCs) at a density of 1×10^6 cells/mL were thawed according to the PBMC Recovery Protocol (Milecell Biotechnologies Inc, Shanghai).
(§3) After 24 hours of compounds treatment, cells were harvested and lysed in RIPA protein lysate containing phosphatase inhibitors on ice for 30-60 min, followed by centrifugation. The supernatant was aspirated as the extracted total cell protein. The protein concentration of the supernatant was determined using the conventional BCA (Bicinchoninic Acid) assay. The supernatant was then mixed with 4× SDS sample loading buffer, denatured at 95° C. for 5 minutes, and then subjected to SDS-PAGE electrophoresis on a polyacrylamide gel. Proteins were then transferred to a nitrocellulose (NC) membrane, blocked at room temperature for 1-2 h, and processed for antibody incubation and detection according to the manufacturer's instructions (Cell Signaling Technology).
(§4) Half-Maximal Degradation Concentration value (the drug concentration required for degrading proteins by 50%, abbreviated as DC50) reads method: comparing the grayscale values of Western blot bands from drug-treated samples with those from blank DMSO-treated controls, and identifying the drug concentration range at which the grayscale value is half that of the DMSO-treated control bands.
(§5) DC50 values can be calculated using ImageJ software to measure grayscale values of Western blot bands from drug-treated samples. The concentration-response curve is fitted to estimate the drug concentration corresponding to half the grayscale value.
(§6) Target protein remaining (%) refers to the percentage of target protein remaining in hPBMC cells after treatment with protein degrader compounds.
(§7) Calculation method for protein remaining (%): Use ImageJ software to measure grayscale values of Western blot bands from drug (protein degrader)-treated samples. The grayscale value of drug-treated bands is divided by that of internal control protein bands, and the resulting quotient is normalized to obtain the relative percentage of remaining target protein after protein degrader treatment.
(§8) Target protein degradation rate (%)=100%−target protein remaining (%).

IKZF2 = molecular target: T3, IKZF2 (Homo sapiens, UniProt Q96SW2+Q9UKS7); assay: Western-blot assay, substrate protein in hPBMCs; type: cell-based; details: hPBMC cells, 24 hours, tested at 50 nM and 500 nM, table does not say which
T3 construct: endogenous in cells; host or cells: human PBMCs (Milecell Biotechnologies)
T3 sequence (Q9UKS7 whole entry): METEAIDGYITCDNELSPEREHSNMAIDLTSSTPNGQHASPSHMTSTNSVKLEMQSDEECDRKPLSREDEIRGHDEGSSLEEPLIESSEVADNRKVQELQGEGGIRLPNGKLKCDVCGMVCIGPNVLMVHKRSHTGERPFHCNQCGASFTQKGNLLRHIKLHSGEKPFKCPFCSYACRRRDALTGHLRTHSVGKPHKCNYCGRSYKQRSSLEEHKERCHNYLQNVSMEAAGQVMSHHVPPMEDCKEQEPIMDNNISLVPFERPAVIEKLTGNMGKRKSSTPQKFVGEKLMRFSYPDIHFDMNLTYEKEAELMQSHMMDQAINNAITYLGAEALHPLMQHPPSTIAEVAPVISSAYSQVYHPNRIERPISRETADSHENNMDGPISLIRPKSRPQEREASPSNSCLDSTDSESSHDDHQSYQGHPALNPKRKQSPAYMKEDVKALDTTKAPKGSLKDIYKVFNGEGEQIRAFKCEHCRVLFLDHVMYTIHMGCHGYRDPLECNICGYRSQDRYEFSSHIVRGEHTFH
T3 sequence (Q96SW2 whole entry): as the sequence (Q96SW2 whole entry) above
T3 sequence (Q16531 whole entry partner): as the sequence (Q16531 whole entry partner) above
Experimental: as §1, §2, §3, §4, §5, §6, §7, §8

CK1α = molecular target: T4, CK1α (Homo sapiens, UniProt P48729+Q96SW2); assay: Western-blot assay, substrate protein in hPBMCs; type: cell-based; details: hPBMC cells, 24 hours, tested at 50 nM and 500 nM, table does not say which
T4 construct: endogenous in cells; host or cells: human PBMCs (Milecell Biotechnologies)
T4 sequence (P48729 whole entry): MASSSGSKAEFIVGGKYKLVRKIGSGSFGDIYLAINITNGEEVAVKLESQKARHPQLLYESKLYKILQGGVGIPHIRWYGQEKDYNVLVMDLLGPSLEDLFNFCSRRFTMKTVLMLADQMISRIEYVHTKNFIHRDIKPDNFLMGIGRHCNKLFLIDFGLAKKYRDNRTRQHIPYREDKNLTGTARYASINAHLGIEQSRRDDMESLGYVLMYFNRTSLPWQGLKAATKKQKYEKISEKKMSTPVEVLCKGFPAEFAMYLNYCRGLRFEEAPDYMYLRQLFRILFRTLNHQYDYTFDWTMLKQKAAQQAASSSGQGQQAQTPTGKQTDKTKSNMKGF
T4 sequence (Q96SW2 whole entry): as the sequence (Q96SW2 whole entry) above
T4 sequence (Q16531 whole entry partner): as the sequence (Q16531 whole entry partner) above
Experimental: as §1, §2, §3, §4, §5, §6, §7, §8

GSPT1 = molecular target: T5, GSPT1 (Homo sapiens, UniProt P15170+Q96SW2); assay: Western-blot assay, substrate protein in hPBMCs; type: cell-based; details: hPBMC cells, 24 hours, tested at 50 nM and 500 nM, table does not say which
T5 construct: endogenous in cells; host or cells: human PBMCs (Milecell Biotechnologies)
T5 sequence (P15170 whole entry): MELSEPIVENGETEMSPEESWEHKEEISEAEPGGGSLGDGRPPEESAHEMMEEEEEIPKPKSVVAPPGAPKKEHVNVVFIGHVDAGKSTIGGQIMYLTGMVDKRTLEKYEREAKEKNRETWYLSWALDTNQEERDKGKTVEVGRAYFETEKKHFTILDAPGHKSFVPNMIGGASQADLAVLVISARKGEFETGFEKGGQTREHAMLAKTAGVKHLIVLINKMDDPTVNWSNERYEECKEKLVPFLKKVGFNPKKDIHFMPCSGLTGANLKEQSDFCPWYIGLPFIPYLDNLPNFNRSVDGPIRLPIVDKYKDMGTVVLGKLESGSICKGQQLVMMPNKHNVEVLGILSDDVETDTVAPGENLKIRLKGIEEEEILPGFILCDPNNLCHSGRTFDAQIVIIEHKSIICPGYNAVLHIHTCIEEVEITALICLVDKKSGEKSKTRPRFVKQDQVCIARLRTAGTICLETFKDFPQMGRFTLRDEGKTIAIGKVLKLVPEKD
T5 sequence (Q96SW2 whole entry): as the sequence (Q96SW2 whole entry) above
T5 sequence (Q16531 whole entry partner): as the sequence (Q16531 whole entry partner) above
Experimental: as §1, §2, §3, §4, §5, §6, §7, §8

Structure (SMILES)	pIC50 [1]	substrate protein remaining % (Wee1)	substrate protein remaining % (IKZF2)	substrate protein remaining % (CK1α)	substrate protein remaining % (GSPT1)
CC1(C)CCC(C(=O)N2CCC(Oc3ccc4c(c3)CN(C3CCC(=O)NC3=O)C4=O)CC2)=C(c2ccc(Cl)cc2)C1 (centres unmarked) [GT-06192, 3-(5-((1-(4′-chloro-5,5-dimethyl-3,4,5,6-tetrahydro-[1,1′-biphenyl]-2-carbonyl)piperidin-4-yl)oxy)-1-oxoisoindolin-2-yl)piperidine-2,6-dione]	6.00 to 6.30	A (0%≤ substrate protein remaining % ≤80%)	A (0%≤ substrate protein remaining % ≤80%)	–	–
O=C1CCC(N2Cc3cc(OC4CN(Cc5cccc(-c6ccc(Cl)cc6)c5)C4)ccc3C2=O)C(=O)N1 (centres unmarked) [GT-06227, 3-(5-((1-((4′-chloro-[1,1′-biphenyl]-3-yl)methyl)azetidin-3-yl)oxy)-1-oxoisoindolin-2-yl)piperidine-2,6-dione]	–	A (0%≤ substrate protein remaining % ≤80%)	–	A (0%≤ substrate protein remaining % ≤80%)	A (0%≤ substrate protein remaining % ≤80%)
O=C1CCC(N2Cc3cc(OC4CCN(Cc5cccc(-c6ccc(Cl)cc6)c5)CC4)ccc3C2=O)C(=O)N1 (centres unmarked) [GT-06228, 3-(5-((1-((4′-chloro-[1,1′-biphenyl]-3-yl)methyl)piperidin-4-yl)oxy)-1-oxoisoindolin-2-yl)piperidine-2,6-dione]	–	A (0%≤ substrate protein remaining % ≤80%)	–	A (0%≤ substrate protein remaining % ≤80%)	A (0%≤ substrate protein remaining % ≤80%)
O=C1CCC(N2Cc3cc(OC4CN(Cc5ccc(-c6ccc(Cl)cc6)cc5)C4)ccc3C2=O)C(=O)N1 (centres unmarked) [GT-06230, 3-(5-((1-((4′-chloro-[1,1′-biphenyl]-4-yl)methyl)azetidin-3-yl)oxy)-1-oxoisoindolin-2-yl)piperidine-2,6-dione]	6.00 to 6.30	A (0%≤ substrate protein remaining % ≤80%)	–	A (0%≤ substrate protein remaining % ≤80%)	A (0%≤ substrate protein remaining % ≤80%)
O=C1CCC(N2Cc3cc(OC4CN(C(c5ccc(F)cc5)c5ccc(F)cc5)C4)ccc3C2=O)C(=O)N1 (centres unmarked) [GT-06519, 3-(5-((1-(bis(4-fluorophenyl)methyl)azetidin-3-yl)oxy)-1-oxoisoindolin-2-yl)piperidine-2,6-dione]	6.00 to 6.30	–	–	A (0%≤ substrate protein remaining % ≤80%)	–
CC1(C)CC(c2ccc(Cl)cc2)=C(CN2CC(Oc3ccc4c(c3)CN(C3CCC(=O)NC3=O)C4=O)C2)CO1 (centres unmarked) [GT-06561, 3-(5-((1-((4-(4-chlorophenyl)-6,6-dimethyl-5,6-dihydro-2H-pyran-3-yl)methyl)azetidin-3-yl)oxy)-1-oxoisoindolin-2-yl)piperidine-2,6-dione]	> 6.30	A (0%≤ substrate protein remaining % ≤80%)	A (0%≤ substrate protein remaining % ≤80%)	–	–
CC1(C)CCC(CN2CCCC(Sc3ccc4c(c3)CN(C3CCC(=O)NC3=O)C4=O)CC2)=C(c2ccc(Cl)cc2)C1 (centres unmarked) [GT-06641, 3-(5-((1-((4′-chloro-5,5-dimethyl-3,4,5,6-tetrahydro-[1,1′-biphenyl]-2-yl)methyl)azepan-4-yl)thio)-1-oxoisoindolin-2-yl)piperidine-2,6-dione]	5.72 to 6.00	–	A (0%≤ substrate protein remaining % ≤80%)	–	–
CC1(C)CCC(C(=O)N2CCCC(Sc3ccc4c(c3)CN(C3CCC(=O)NC3=O)C4=O)CC2)=C(c2ccc(Cl)cc2)C1 (centres unmarked) [GT-06642, 3-(5-((1-(4′-chloro-5,5-dimethyl-3,4,5,6-tetrahydro-[1,1′-biphenyl]-2-carbonyl)azepan-4-yl)thio)-1-oxoisoindolin-2-yl)piperidine-2,6-dione]	5.72 to 6.00	–	A (0%≤ substrate protein remaining % ≤80%)	–	A (0%≤ substrate protein remaining % ≤80%)
O=C1CCC(N2Cc3cc(SC4CCCN(Cc5ccccc5-c5ccc(Cl)cc5)CC4)ccc3C2=O)C(=O)N1 (centres unmarked) [GT-06643, 3-(5-((1-((4′-chloro-[1,1′-biphenyl]-2-yl)methyl)azepan-4-yl)thio)-1-oxoisoindolin-2-yl)piperidine-2,6-dione]	5.72 to 6.00	A (0%≤ substrate protein remaining % ≤80%)	A (0%≤ substrate protein remaining % ≤80%)	–	–
O=C1CCC(N2Cc3cc(OC4CN(C(c5ccccc5F)c5ccccc5F)C4)ccc3C2=O)C(=O)N1 (centres unmarked) [GT-06759, 3-(5-((1-(bis(2-fluorophenyl)methyl)azetidin-3-yl)oxy)-1-oxoisoindolin-2-yl)piperidine-2,6-dione]	> 6.30	–	A (0%≤ substrate protein remaining % ≤80%)	–	A (0%≤ substrate protein remaining % ≤80%)
O=C1CCC(N2Cc3cc(OC4CCN(C(=O)c5ccccc5-c5ccc(Cl)cc5)C4)ccc3C2=O)C(=O)N1 (centres unmarked) [GT-06818, 3-(5-((1-(4′-chloro-[1,1′-biphenyl]-2-carbonyl)pyrrolidin-3-yl)oxy)-1-oxoisoindolin-2-yl)piperidine-2,6-dione]	> 6.30	A (0%≤ substrate protein remaining % ≤80%)	–	A (0%≤ substrate protein remaining % ≤80%)	A (0%≤ substrate protein remaining % ≤80%)
O=C1CCC(N2Cc3cc(SC4CC5CN(Cc6ccccc6-c6ccc(Cl)cc6)CC5C4)ccc3C2=O)C(=O)N1 (centres unmarked) [GT-06914, 3-(5-((2-((4′-chloro-[1,1′-biphenyl]-2-yl)methyl)octahydrocyclopenta[c]pyrrol-5-yl)thio)-1-oxoisoindolin-2-yl)piperidine-2,6-dione]	5.72 to 6.00	A (0%≤ substrate protein remaining % ≤80%)	A (0%≤ substrate protein remaining % ≤80%)	–	–
O=C1CCC(N2Cc3cc(OC4CC5CN(Cc6ccccc6-c6ccc(Cl)cc6)CC5C4)ccc3C2=O)C(=O)N1 (centres unmarked) [GT-06953, 3-(5-((2-((4′-chloro-[1,1′-biphenyl]-2-yl)methyl)octahydrocyclopenta [c]pyrrol-5-yl)oxy)-1-oxoisoindolin-2-yl)piperidine-2,6-dione]	> 6.30	A (0%≤ substrate protein remaining % ≤80%)	–	A (0%≤ substrate protein remaining % ≤80%)	–
O=C1CCC(N2Cc3cc(SC4CCCNCC4)ccc3C2=O)C(=O)N1 (centres unmarked) [GT-06995, 3-(5-(azepan-4-ylthio)-1-oxoisoindolin-2-yl)piperidine-2,6-dione]	5.72 to 6.00	–	–	A (0%≤ substrate protein remaining % ≤80%)	–
O=C1CCC(N2Cc3cc(SC4CC5(CCNCC5)C4)ccc3C2=O)C(=O)N1 (centres unmarked) [GT-06997, 3-(5-((7-azaspiro[3.5]nonan-2-yl)thio)-1-oxoisoindolin-2-yl)piperidine-2,6-dione]	6.00 to 6.30	–	A (0%≤ substrate protein remaining % ≤80%)	–	A (0%≤ substrate protein remaining % ≤80%)
O=C1CCC(N2Cc3cc(OC4CC5(CCNCC5)C4)ccc3C2=O)C(=O)N1 (centres unmarked) [GT-07005, 3-(5-((7-azaspiro[3.5]nonan-2-yl)oxy)-1-oxoisoindolin-2-yl)piperidine-2,6-dione]	5.72 to 6.00	–	A (0%≤ substrate protein remaining % ≤80%)	–	–
COC1(C)CCC(c2ccc(Cl)cc2)=C(CN2CC(Oc3ccc4c(c3)CN(C3CCC(=O)NC3=O)C4=O)C2)C1 (centres unmarked) [GT-07065, 3-(5-((1-((4′-chloro-4-methoxy-4-methyl-3,4,5,6-tetrahydro-[1,1′-biphenyl]-2-yl)methyl)azetidin-3-yl)oxy)-1-oxoisoindolin-2-yl)piperidine-2,6-dione]	–	–	–	A (0%≤ substrate protein remaining % ≤80%)	–
